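Protocol summary: plate cells (96-well), add compound at 5 concentrations, incubate 48 h, interpolate endpoints linearly. Here, GI50 denotes the concentration required for 50% inhibition of growth.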 The source made the active and inactive calls. Rule as the data show it: active = GI50 up to about 1.1 µM and inactive = higher.
Tests used:
Assay in all cases: NCI anticancer screen, dose series, 48 h
M19-MEL = test system: M19-MEL
SNB-78 = test system: SNB-78
DMS-114 = test system: DMS-114
LXFL 529 = test system: LXFL 529
HOP-18 = test system: HOP-18
RXF 631 = test system: RXF 631
XF498 = test system: XF498
DMS-273 = test system: DMS-273
KM-20L2 = test system: KM-20L2

SMILES | GI50 (M19-MEL) | GI50 (SNB-78) | GI50 (DMS-114) | GI50 (LXFL 529) | GI50 (HOP-18) | GI50 (RXF 631) | GI50 (XF498) | GI50 (DMS-273) | GI50 (KM-20L2)
O=C1NC(=O)C(C(=O)C(=O)Nc2ccc(Br)cc2)C(=O)N1 | > 100 µM (inactive) | > 100 µM (inactive) | > 100 µM (inactive) | > 100 µM (inactive) | > 100 µM (inactive) | > 100 µM (inactive) | > 100 µM (inactive) | > 100 µM (inactive) | > 100 µM (inactive)
CC(=O)O[C@@]12CO[C@@H]1CC(O)[C@@]1(C)C(=O)[C@H](O)C3=C(C)C(O)C[C@@](O)(C(OC(=O)c4ccccc4)C12)C3(C)C (stereo not given in full) | 12.8 µM (inactive) | 15.5 µM (inactive) | – | – | – | – | 2.07 µM (inactive) | 0.472 µM (active) | 0.679 µM (active)
CCOC(=O)C1=C(C(=O)OCC)C2(c3ccccc3)N(O1)c1ccccc1C2(C)C (stereo not given) | 70.8 µM (inactive) | 54.8 µM (inactive) | – | 36.1 µM (inactive) | 23.3 µM (inactive) | – | – | – | 39.1 µM (inactive)
c1ccc(SC2CCSc3ccccc3C2Sc2ccccc2)cc1 (stereo not given) | > 10 µM (inactive) | > 100 µM (inactive) | > 10 µM (inactive) | > 100 µM (inactive) | – | – | > 100 µM (inactive) | > 100 µM (inactive) | > 100 µM (inactive)
C=CC[P@]1(=O)O[C@H](c2ccccc2)C(C)N1C(C)C (stereo not given in full) | > 100 µM (inactive) | – | > 100 µM (inactive) | > 100 µM (inactive) | > 100 µM (inactive) | > 100 µM (inactive) | > 100 µM (inactive) | – | > 100 µM (inactive)
CCN(CC)CCNC(=O)c1ccc(C)c(OCc2ccccc2)c1[N+](=O)[O-] | 18.1 µM (inactive) | 61.9 µM (inactive) | 26.5 µM (inactive) | 18 µM (inactive) | > 100 µM (inactive) | – | 20.8 µM (inactive) | 23.6 µM (inactive) | 27.2 µM (inactive)
CCN(CC)CC(=O)Nc1ccc2c(c1)C(=O)c1ccc(NC(=O)CN(CC)CC)cc1C2=O | > 100 µM (inactive) | 98.9 µM (inactive) | 20.4 µM (inactive) | 22.8 µM (inactive) | – | – | – | 18.7 µM (inactive) | 49.8 µM (inactive)
CCOC(=O)C(Cc1ccccc1)NC(=O)OC(C)(C)C (stereo not given) | > 100 µM (inactive) | > 100 µM (inactive) | > 100 µM (inactive) | > 100 µM (inactive) | – | > 100 µM (inactive) | > 100 µM (inactive) | > 100 µM (inactive) | –
C=CC(=O)NCNC(=O)C=C | > 100 µM (inactive) | – | > 100 µM (inactive) | > 100 µM (inactive) | > 100 µM (inactive) | – | > 100 µM (inactive) | > 100 µM (inactive) | > 100 µM (inactive)
CC(C)(C)C[P+](C)(C)c1ccccc1 | > 100 µM (inactive) | > 100 µM (inactive) | > 100 µM (inactive) | > 100 µM (inactive) | > 100 µM (inactive) | > 100 µM (inactive) | – | > 100 µM (inactive) | 83 µM (inactive)
CC[n+]1c(/C=C/c2ccc(N(CCCl)CCCl)cc2)ccc2cc(Br)ccc21 | 1.2 µM (inactive) | 0.76 µM (active) | 0.662 µM (active) | 0.67 µM (active) | 6.14 µM (inactive) | 630 µM (inactive) | 0.275 µM (active) | 244 µM (inactive) | 3.13 µM (inactive)
COC1=C(C)C(=O)C2=C(C1=O)C1C3CC4=C(C(=O)C(OC)=C(C)C4=O)C(CNC(=O)C(C)O)N3C(C#N)C(C2)N1C (stereo not given) | < 0.01 µM (active) | < 0.01 µM (active) | < 0.01 µM (active) | – | < 0.01 µM (active) | – | < 0.01 µM (active) | < 0.01 µM (active) | < 0.01 µM (active)
CSc1cnc2ccccc2c1Sc1cn(C)c2ccccc2c1=O | 56 µM (inactive) | – | 14.9 µM (inactive) | – | 34 µM (inactive) | 10 µM (inactive) | 21.9 µM (inactive) | 21.6 µM (inactive) | 38.9 µM (inactive)
COc1cc(CNc2nc3c(N)cc(C(F)(F)F)cc3nc2-c2ccccc2)cc(OC)c1OC | 35.4 µM (inactive) | > 10 µM (inactive) | 12.3 µM (inactive) | 25.6 µM (inactive) | > 10 µM (inactive) | 44.3 µM (inactive) | 13.7 µM (inactive) | 37.8 µM (inactive) | 29.6 µM (inactive)
Cn1c2c(c3ccccc31)CCN(CCN1CCN(c3ccccc3)CC1)C2=O | – | – | > 100 µM (inactive) | > 100 µM (inactive) | 55 µM (inactive) | > 100 µM (inactive) | 22.2 µM (inactive) | > 100 µM (inactive) | > 100 µM (inactive)
Cc1ccc(S(=O)OCC23CC4CC(CC(C4)C2)C3)cc1 (stereo not given) | > 100 µM (inactive) | > 100 µM (inactive) | – | > 100 µM (inactive) | > 100 µM (inactive) | – | > 100 µM (inactive) | > 100 µM (inactive) | > 100 µM (inactive)
O=C(/C=C/c1cccc2ccccc12)c1ccccc1Cl | – | 19.6 µM (inactive) | 12 µM (inactive) | 13.8 µM (inactive) | 17.1 µM (inactive) | 18.1 µM (inactive) | 7.59 µM (inactive) | 14.4 µM (inactive) | 12.7 µM (inactive)
Cc1cc(Cl)ccc1NC(=O)C(=O)Cc1ccc([N+](=O)[O-])c([N+](=O)[O-])c1CC(=O)C(=O)Nc1ccc(Cl)cc1C | > 100 µM (inactive) | > 100 µM (inactive) | 60.4 µM (inactive) | > 100 µM (inactive) | > 100 µM (inactive) | – | > 100 µM (inactive) | > 100 µM (inactive) | > 100 µM (inactive)
CCCCCCCCCCCCC(=O)OC(c1cnco1)c1nc(C(O)CC(O)C(O)C(C)O)co1 (stereo not given) | 0.78 µM (active) | – | 0.18 µM (active) | 0.238 µM (active) | 3.48 µM (inactive) | – | 0.627 µM (active) | 0.104 µM (active) | 1.23 µM (inactive)
O=C1C2c3[nH]c4ccccc4c3C3CCC(c4ccccc4)CC3C2C(=O)N1c1ccccc1 (stereo not given) | > 100 µM (inactive) | 28.6 µM (inactive) | > 100 µM (inactive) | > 100 µM (inactive) | > 100 µM (inactive) | – | > 100 µM (inactive) | > 100 µM (inactive) | –

From ChEMBL document CHEMBL1201862, “PubChem BioAssay data set” (2004)
